Reference: patent publication US10668127B2, “Method and composition for synchronizing time of insemination” (UNITED-AH II, LLC, priority 2009, dated 2020)

Assays:
sows [1] = experiment: Pregnancy rate and litter size at slaughter 30 days after insemination (Examples 1-7); type: in vivo, swine; settings: OG, LS means; for Pregnant (%): pregnant at slaughter of all sows allotted
Protocol: Approximately 120 parity one to seven sows (30 sows within each treatment group) were used to obtain ovulation and reproductive tract data. All sows were of the same genotype (PIC C22). Following 16 to 24 days of lactation, sows were blocked by length of lactation and parity and randomly assigned to one of four treatments: 1) a placebo group, receiving a placebo gel at 96±2 hours post-weaning and a single AI 24 hours later, 2) triptorelin gel at 96±2 hours post-weaning and AI 18 to 20 hours later. 3) triptorelin gel at 96±2 hours post-weaning and AI 24 to 26 hours later, and 4) triptorelin gel at 96±2 hours post-weaning and AI 30 to 32 hours later. The placebo formulation was identical to the active formulation but without the hormone being present. All treatments were deposited into the anterior vagina within 2 cm of the cervix. Follicular development and ovulation was monitored via real time ultrasound at 24, 32, 40, 48, and 56 hours after treatment. Thirty (30) days after insemination, all sows were slaughtered and reproductive tracts obtained. Pregnancy rates and embryo survival were determined. Triptorelin was administered at 96 hours (±2 hr) post-weaning as a single 2 mL dose deposited approximately 1-2 cm posterior to the cervix with a modified artificial insemination catheter. Weaning of sows occurred between 10 a.m. and noon on Day (O). The timing of the insemination for each group of sows was given as directed in the protocol. Those sows scheduled to be inseminated 18 hours following administration of triptorelin were generally inseminated between 6:00 a.m. and 8:00 a.m. the following day, those sows scheduled to be inseminated 24 hours following administration of triptorelin were generally inseminated between noon and 2:00 p.m. the following day and those sows scheduled to be inseminated 30 hours following administration of triptorelin were generally inseminated between 6:00 p.m. and 8:00 p.m. the following day. The single insemination for each sow was performed as they were normally done at the farm. […] There was a tendency (p=0.09) for triptorelin treated sows inseminated at 18 hours (12.4 fetuses) and at 24 hours (11.8 fetuses) post treatment to have a higher number of healthy fetuses than triptorelin treated sows inseminated at 30 hours (8.6) post treatment and for vehicle treated sows inseminated at 24 hours (8.6) following treatment. […] For all analyses, the models contained the fixed effects of treatment (placebo controls inseminated 24 hours after treatment, triptorelin treated sows inseminated 18 hours after treatment, triptorelin treated sows inseminated 24 hours after treatment and triptorelin treated sows inseminated 30 hours after treatment) and replicate. The records for sow parity and lactation length were included as covariates. First order interaction of treatment and replicate was tested and removed when non-significant. Differences between treatments were tested on least squares means estimates using the T test at P<0.05.

sows [2] = experiment: Ovulation detection by transrectal ultrasonography (Examples 1-7); type: in vivo, swine; settings: for OV48 (%): 48 h after treatment, OG, LS means
Protocol: Approximately 120 parity one to seven sows (30 sows within each treatment group) were used to obtain ovulation and reproductive tract data. All sows were of the same genotype (PIC C22). Following 16 to 24 days of lactation, sows were blocked by length of lactation and parity and randomly assigned to one of four treatments: 1) a placebo group, receiving a placebo gel at 96±2 hours post-weaning and a single AI 24 hours later, 2) triptorelin gel at 96±2 hours post-weaning and AI 18 to 20 hours later. 3) triptorelin gel at 96±2 hours post-weaning and AI 24 to 26 hours later, and 4) triptorelin gel at 96±2 hours post-weaning and AI 30 to 32 hours later. The placebo formulation was identical to the active formulation but without the hormone being present. All treatments were deposited into the anterior vagina within 2 cm of the cervix. Follicular development and ovulation was monitored via real time ultrasound at 24, 32, 40, 48, and 56 hours after treatment. Thirty (30) days after insemination, all sows were slaughtered and reproductive tracts obtained. Pregnancy rates and embryo survival were determined. Triptorelin was administered at 96 hours (±2 hr) post-weaning as a single 2 mL dose deposited approximately 1-2 cm posterior to the cervix with a modified artificial insemination catheter. Weaning of sows occurred between 10 a.m. and noon on Day (O). The timing of the insemination for each group of sows was given as directed in the protocol. Those sows scheduled to be inseminated 18 hours following administration of triptorelin were generally inseminated between 6:00 a.m. and 8:00 a.m. the following day, those sows scheduled to be inseminated 24 hours following administration of triptorelin were generally inseminated between noon and 2:00 p.m. the following day and those sows scheduled to be inseminated 30 hours following administration of triptorelin were generally inseminated between 6:00 p.m. and 8:00 p.m. the following day. The single insemination for each sow was performed as they were normally done at the farm. […] Ultrasonography was performed at 24 hr (±1.5 hour) after treatment on Day 5 and again at 8:00 p.m. (±1.5 hour) on Day 5. On Day 6 transrectal ultrasonography was performed at 4:00 a.m. (±1 hour), noon (±1 hr) and 8:00 p.m. (±1 hr) until ovulation was complete or until the 8:00 p.m. ultrasonography on Day 6 (the 56 hour mark from the animals treated at 96 hours post-weaning) whichever came first. An Aloka 500 ultrasound machine was used for this purpose, with a 7.5 MHz linear array transducer attached to a fixed-angle PVC stabilizing rod to facilitate insertion into the rectum. The transducer and PVC rod were coated with a gynecological lubricant and gently inserted into the rectum until the ovaries could be visualized, one at a time. The diameters of the three largest follicles were to be recorded (to the nearest 0.1 mm) at each scanning. A sow was declared to have ovulated when the number of large follicles 6.5 mm) fell to less than 3. […] For all analyses, the models contained the fixed effects of treatment (placebo controls inseminated 24 hours after treatment, triptorelin treated sows inseminated 18 hours after treatment, triptorelin treated sows inseminated 24 hours after treatment and triptorelin treated sows inseminated 30 hours after treatment) and replicate. The records for sow parity and lactation length were included as covariates. First order interaction of treatment and replicate was tested and removed when non-significant. […]

## CC(C)C[C@H](NC(=O)[C@@H](Cc1c[nH]c2ccccc12)NC(=O)[C@H](Cc1ccc(O)cc1)NC(=O)[C@H](CO)NC(=O)[C@H](Cc1c[nH]c2ccccc12)NC(=O)[C@H](Cc1c[nH]cn1)NC(=O)[C@@H]1CCC(=O)N1)C(=O)N[C@@H](CCCNC(=N)N)C(=O)N1CCC[C@H]1C(=O)NCC(N)=O [triptorelin, pGlu-His-Trp-Ser-Tyr-D-Trp-Leu-Arg-Pro-Gly-NH2]
Sows [1]; AI 18 h
  Number of Healthy Fetuses: 12.4
  Pregnant (%): 74.4%
Sows [1]; AI 24 h
  Number of Healthy Fetuses: 11.8
  Pregnant (%): 68.1%
Sows [1]; AI 30 h
  Number of Healthy Fetuses: 8.6
  Pregnant (%): 62.3%
Sows [2]; 120 to 144 hr after weaning, triptorelin treated sows
  sows ovulating during their most synchronous 24 hr period: 70-77%
Sows [2]; AI 18 h
  OV48 (%): 74.0%
Sows [2]; AI 24 h
  OV48 (%): 77.0%
Sows [2]; AI 30 h
  OV48 (%): 76.8%
Sows [2]; average of triptorelin treated sows
  percentage of sows ovulating by 56 hours after treatment: 80.4%
